Where no end group is shown, it is not given here.
Test system: Xylella fastidiosa DSM10026/ATCC35879

## KWKLFKKIEKVGQNIRDGIIKAGPAVAVVGQATQIAK-NH2 (C-terminus assumed) [Cecropin A BR001]
  MIC (µM): 6.25 µM
  MIC (µg mL^-1): 25 µg/mL

— EP4385997A1 (priority 2022, dated 2024)
